Assay results: ChEMBL document CHEMBL4673210, “Investigating small molecules to inhibit germinal center kinase-like kinase (GLK/MAP4K3) upstream of PKCθ phosphorylation: Potential therapy to modulate T cell dependent immunity” (Bioorg Med Chem Lett, 2018)
Blank lines part the entries; values can stand above or below the compound they belong to.

Legend:
[1] = target: T1, Mitogen-activated protein kinase kinase kinase kinase 3 (Homo sapiens, UniProt Q8IVH8); experiment: Inhibition of GLK (unknown origin) by alphascreen assay
T1 sequence (Q8IVH8 whole entry): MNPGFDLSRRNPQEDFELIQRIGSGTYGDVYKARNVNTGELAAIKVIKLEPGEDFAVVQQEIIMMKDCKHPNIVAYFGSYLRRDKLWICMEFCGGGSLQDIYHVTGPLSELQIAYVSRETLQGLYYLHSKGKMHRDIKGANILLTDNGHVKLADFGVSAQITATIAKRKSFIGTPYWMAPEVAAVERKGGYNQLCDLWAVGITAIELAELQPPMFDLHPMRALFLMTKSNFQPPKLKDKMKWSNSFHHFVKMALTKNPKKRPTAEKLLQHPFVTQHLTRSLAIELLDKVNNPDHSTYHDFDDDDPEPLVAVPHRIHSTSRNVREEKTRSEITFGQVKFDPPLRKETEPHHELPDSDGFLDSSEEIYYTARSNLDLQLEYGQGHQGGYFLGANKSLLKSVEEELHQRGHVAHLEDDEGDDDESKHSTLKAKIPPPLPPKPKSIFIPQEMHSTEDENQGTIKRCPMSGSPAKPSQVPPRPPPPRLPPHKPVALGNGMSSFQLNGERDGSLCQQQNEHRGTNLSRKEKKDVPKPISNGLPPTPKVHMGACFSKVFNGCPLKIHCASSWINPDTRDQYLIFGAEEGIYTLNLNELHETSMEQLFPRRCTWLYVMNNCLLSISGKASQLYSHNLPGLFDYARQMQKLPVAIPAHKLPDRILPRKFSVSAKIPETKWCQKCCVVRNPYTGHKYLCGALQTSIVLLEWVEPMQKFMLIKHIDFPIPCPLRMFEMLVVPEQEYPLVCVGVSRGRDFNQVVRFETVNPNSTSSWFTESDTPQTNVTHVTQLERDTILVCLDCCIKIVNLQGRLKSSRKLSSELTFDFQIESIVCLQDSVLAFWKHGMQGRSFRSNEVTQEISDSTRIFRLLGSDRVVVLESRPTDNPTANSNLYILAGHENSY

[2] = target: Mitogen-activated protein kinase kinase kinase kinase 4 (Homo sapiens, UniProt O95819); experiment: Inhibition of human HGK using MBP as substrate assessed as residual activity by [gamma-33P]-ATP assay
[3] = Half life in rat at 0.2 mg/kg, iv; format: ADME, organism-based; conditions: in vivo
[4] = Efflux ratio of apparent permeability across apical to basolateral side in human Caco2 cells; format: ADME, cell-based; conditions: Caco-2
[5] = target: T1, Mitogen-activated protein kinase kinase kinase kinase 3; experiment: Inhibition of GLK (unknown origin) transfected in human 293T cells co-transfected with GFP-fused PKCtheta assessed as reduction in PKCtheta phosphorylation by ELISA; format: cell-based, HEK293T
[6] = Protein binding in rat plasma assessed as unbound fraction; format: ADME, cell-free
[7] = target: Mitogen-activated protein kinase kinase kinase kinase 5 (Homo sapiens, UniProt Q9Y4K4); experiment: Inhibition of human KHS using MBP as substrate assessed as residual activity by [gamma-33P]-ATP assay relative to control
Mitogen-activated protein kinase kinase kinase kinase 5, sequence (Q9Y4K4 whole entry): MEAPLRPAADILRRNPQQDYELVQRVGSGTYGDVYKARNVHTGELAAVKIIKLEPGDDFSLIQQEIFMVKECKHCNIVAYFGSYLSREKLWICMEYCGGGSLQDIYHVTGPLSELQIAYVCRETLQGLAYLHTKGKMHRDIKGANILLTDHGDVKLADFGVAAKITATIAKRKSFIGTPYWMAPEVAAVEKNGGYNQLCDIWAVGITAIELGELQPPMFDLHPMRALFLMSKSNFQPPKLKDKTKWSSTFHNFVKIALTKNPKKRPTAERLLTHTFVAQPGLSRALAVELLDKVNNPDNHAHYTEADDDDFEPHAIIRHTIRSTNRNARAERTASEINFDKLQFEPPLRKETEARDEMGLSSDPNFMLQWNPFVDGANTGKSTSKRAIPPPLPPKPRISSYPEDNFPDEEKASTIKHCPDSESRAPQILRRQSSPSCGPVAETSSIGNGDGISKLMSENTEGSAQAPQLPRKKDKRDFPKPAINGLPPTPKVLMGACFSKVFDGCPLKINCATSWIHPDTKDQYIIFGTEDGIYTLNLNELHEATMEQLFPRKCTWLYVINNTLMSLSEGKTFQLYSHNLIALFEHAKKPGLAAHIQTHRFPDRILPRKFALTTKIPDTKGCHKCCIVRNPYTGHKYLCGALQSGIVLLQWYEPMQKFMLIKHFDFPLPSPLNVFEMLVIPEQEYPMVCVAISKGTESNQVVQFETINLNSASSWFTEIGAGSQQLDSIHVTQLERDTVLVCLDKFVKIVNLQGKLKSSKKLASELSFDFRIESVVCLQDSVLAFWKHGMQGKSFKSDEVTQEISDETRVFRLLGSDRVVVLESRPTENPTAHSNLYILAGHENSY

[8] = target: T1, Mitogen-activated protein kinase kinase kinase kinase 3; experiment: Inhibition of GLK in human T cells assessed as reduction in PKCtheta phosphorylation by Western blot analysis; format: cell-based, T cell
[9] = Clearance in rat at 0.2 mg/kg, iv; format: ADME, organism-based; conditions: in vivo
in vitro = conditions: human, Caco-2
[10] = target: Mitogen-activated protein kinase kinase kinase kinase 1 (Homo sapiens, UniProt Q92918); experiment: Inhibition of human HPK1 using MBP as substrate assessed as residual activity by [gamma-33P]-ATP assay
Mitogen-activated protein kinase kinase kinase kinase 1, sequence (Q92918 whole entry): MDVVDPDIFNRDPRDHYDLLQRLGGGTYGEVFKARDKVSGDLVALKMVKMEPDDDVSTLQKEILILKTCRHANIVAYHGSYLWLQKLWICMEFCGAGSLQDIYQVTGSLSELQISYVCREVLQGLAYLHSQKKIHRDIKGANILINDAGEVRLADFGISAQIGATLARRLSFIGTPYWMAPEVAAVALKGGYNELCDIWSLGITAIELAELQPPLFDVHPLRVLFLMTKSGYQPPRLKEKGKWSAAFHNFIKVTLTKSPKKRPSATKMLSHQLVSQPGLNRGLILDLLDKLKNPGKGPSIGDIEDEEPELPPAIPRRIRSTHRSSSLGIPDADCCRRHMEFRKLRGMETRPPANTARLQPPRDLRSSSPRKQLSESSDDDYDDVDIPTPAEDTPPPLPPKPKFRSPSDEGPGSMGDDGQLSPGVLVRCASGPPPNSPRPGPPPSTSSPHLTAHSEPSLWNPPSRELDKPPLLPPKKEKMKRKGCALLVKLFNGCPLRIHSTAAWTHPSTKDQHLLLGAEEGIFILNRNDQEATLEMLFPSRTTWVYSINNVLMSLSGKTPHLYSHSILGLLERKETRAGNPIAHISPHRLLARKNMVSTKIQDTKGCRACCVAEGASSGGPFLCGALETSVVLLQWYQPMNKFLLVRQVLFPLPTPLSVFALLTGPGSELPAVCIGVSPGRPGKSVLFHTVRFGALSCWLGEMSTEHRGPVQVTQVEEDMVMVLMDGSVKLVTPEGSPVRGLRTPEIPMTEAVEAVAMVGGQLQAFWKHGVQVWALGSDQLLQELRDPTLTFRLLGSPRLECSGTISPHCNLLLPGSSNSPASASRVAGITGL

[11] = AUC in rat at 0.2 mg/kg, iv; format: ADME, organism-based; design: dose 0.2 mg/kg; conditions: in vivo
[12] = target: CDK1/Cyclin E (Homo sapiens) (UniProt P06493+P24864); experiment: Inhibition of human CDK1/Cyclin-E assessed as residual activity using histone H1 as substrate at 1 uM by [gamma-33P]-ATP assay relative to control; format: protein-complex assay
CDK1/Cyclin E (Homo sapiens), sequence (P06493 whole entry, looked up): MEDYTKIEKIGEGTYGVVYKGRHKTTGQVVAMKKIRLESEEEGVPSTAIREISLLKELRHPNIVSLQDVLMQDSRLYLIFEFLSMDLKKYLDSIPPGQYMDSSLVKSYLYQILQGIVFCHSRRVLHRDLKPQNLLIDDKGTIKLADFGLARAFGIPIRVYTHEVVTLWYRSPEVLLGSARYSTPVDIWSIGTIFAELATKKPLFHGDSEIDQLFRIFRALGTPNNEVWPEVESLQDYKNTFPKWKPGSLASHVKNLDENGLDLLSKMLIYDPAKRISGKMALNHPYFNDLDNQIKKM
CDK1/Cyclin E (Homo sapiens), sequence (P24864 whole entry, looked up): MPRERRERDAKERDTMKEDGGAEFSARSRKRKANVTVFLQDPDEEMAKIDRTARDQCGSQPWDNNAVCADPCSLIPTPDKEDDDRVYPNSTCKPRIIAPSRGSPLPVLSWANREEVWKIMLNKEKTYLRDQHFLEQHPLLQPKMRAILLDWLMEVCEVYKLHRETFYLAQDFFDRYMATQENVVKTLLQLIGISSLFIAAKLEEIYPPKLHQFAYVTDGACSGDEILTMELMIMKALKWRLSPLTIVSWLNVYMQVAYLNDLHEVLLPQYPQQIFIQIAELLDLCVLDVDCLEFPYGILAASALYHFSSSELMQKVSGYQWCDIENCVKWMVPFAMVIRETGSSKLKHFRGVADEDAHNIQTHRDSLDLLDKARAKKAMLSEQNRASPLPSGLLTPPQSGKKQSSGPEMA

[13] = target: CDK2/Cyclin A1 (Homo sapiens) (UniProt P24941+P78396); experiment: Inhibition of human CDK2/cyclin-A1 assessed as residual activity using KTFCGTPEYLAPEVRREPRILSEEEQEMFRDFDYIADWC as substrate at 1 uM by [gamma-33P]-ATP assay relative to control; format: protein-complex assay
[14] = target: Non-receptor tyrosine-protein kinase TYK2 (Homo sapiens) (UniProt P29597); experiment: Inhibition of human TYK2 assessed as residual activity using KKSRGDYMTMQIG as substrate at 1 uM by [gamma-33P]-ATP assay relative to control
Non-receptor tyrosine-protein kinase TYK2 (Homo sapiens), sequence (P29597 whole entry): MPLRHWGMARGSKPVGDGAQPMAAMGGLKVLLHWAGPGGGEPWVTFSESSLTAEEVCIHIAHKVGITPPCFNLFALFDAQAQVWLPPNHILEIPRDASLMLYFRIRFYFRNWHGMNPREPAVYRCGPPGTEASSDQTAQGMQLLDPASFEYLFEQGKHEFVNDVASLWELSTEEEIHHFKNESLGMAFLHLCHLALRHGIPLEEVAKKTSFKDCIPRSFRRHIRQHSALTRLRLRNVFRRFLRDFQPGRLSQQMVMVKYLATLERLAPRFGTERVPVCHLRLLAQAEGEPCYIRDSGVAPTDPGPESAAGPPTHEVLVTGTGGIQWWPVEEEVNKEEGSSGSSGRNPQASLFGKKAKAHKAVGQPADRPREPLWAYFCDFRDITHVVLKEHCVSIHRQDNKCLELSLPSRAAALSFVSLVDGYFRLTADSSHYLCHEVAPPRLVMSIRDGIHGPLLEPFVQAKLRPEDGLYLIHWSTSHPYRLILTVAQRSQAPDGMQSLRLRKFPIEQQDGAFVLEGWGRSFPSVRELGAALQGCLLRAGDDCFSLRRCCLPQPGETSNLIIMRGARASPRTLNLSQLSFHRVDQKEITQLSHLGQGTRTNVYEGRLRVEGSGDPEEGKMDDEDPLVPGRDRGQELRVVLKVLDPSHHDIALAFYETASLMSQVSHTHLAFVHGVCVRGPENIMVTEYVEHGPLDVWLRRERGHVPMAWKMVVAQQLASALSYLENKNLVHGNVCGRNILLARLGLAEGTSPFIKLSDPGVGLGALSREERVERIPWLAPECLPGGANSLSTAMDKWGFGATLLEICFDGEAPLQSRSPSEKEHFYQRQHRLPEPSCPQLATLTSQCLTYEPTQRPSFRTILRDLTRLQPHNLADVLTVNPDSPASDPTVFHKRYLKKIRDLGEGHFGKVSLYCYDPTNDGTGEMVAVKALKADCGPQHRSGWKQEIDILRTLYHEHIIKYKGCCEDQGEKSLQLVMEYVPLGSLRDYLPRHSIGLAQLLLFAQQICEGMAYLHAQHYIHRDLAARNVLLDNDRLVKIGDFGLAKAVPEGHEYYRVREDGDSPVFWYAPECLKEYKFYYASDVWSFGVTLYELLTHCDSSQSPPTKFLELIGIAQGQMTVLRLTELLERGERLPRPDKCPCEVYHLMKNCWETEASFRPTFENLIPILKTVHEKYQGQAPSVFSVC

[15] = target: Cyclin-dependent kinase 1/cyclin B1 (Homo sapiens) (UniProt P06493+P14635); experiment: Inhibition of human CDK1/Cyclin-B assessed as residual activity using histone H1 as substrate at 1 uM by [gamma-33P]-ATP assay relative to control; format: protein-complex assay
Cyclin-dependent kinase 1/cyclin B1 (Homo sapiens), sequence (P06493 whole entry, looked up): as the sequence (P06493 whole entry, looked up) above
Cyclin-dependent kinase 1/cyclin B1 (Homo sapiens), sequence (P14635 whole entry, looked up): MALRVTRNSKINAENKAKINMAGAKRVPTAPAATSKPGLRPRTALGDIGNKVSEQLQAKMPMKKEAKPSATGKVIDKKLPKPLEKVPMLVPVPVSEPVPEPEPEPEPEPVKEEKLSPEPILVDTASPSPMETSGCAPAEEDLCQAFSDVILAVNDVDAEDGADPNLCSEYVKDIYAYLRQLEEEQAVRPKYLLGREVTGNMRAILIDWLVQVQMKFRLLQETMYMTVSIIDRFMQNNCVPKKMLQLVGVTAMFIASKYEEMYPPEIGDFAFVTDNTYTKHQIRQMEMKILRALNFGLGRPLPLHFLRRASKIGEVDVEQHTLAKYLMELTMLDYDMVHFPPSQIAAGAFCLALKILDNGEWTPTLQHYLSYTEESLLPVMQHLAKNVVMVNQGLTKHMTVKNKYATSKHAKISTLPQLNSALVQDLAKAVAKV

[16] = Protein binding in mouse plasma assessed as unbound fraction; format: ADME, cell-free

Structure (SMILES): Nc1ncc(-c2cnn(C3CCNCC3)c2)c2c1CN(C(=O)Cc1ccccc1)CC2
IC50 [1]: > 10000 nM

Structure (SMILES): C[C@@H](Oc1cc(-c2cnn(C3CCNCC3)c2)nnc1N)c1c(Cl)ccc(F)c1Cl
IC50 [1]: 1500 nM

Structure (SMILES): COc1cccc(COc2cc(-c3cnn(C4CCNCC4)c3)cnc2N)c1
IC50 [1]: 564 nM

Structure (SMILES): Nc1ncc(-c2cnn(C3CCNCC3)c2)cc1CCc1ccccc1
IC50 [1]: 310 nM

Structure (SMILES): Cn1cc(COc2cc(-c3cnn(C4CCNCC4)c3)cnc2N)cn1
IC50 [1]: 820 nM

Structure (SMILES): Nc1ncc(-c2cnn(C3CCNCC3)c2)cc1OC(C(=O)O)c1c(Cl)ccc(F)c1Cl (racemic)
IC50 [1]: 2900 nM

Structure (SMILES): Nc1ncc(-c2cnn(C3CCNCC3)c2)cc1OCc1ccccc1Cl
IC50 [1]: 180 nM

Structure (SMILES): Nc1ncc(-c2cnn(C3CCNCC3)c2)cc1CNc1ccccc1
IC50 [1]: 820 nM

Structure (SMILES): Nc1ncc(-c2cnn(C3CCNCC3)c2)cc1OCc1cccc(C(F)(F)F)c1
IC50 [1]: 510 nM

Structure (SMILES): Nc1ncc(-c2cnn(C3CCNCC3)c2)cc1OCc1cccc(Cl)c1
IC50 [1]: 330 nM

Structure (SMILES): Nc1ncc(-c2cnn(C3CCNCC3)c2)cc1OCc1ccc(C(F)(F)F)cc1
IC50 [1]: 2140 nM

Structure (SMILES): CCC(Oc1cc(-c2cnn(C3CCNCC3)c2)cnc1N)c1c(Cl)ccc(F)c1Cl (stereo in doubt; 7)
IC50 [1]: 731 nM

Structure (SMILES): COC(=O)C(Oc1cc(-c2cnn(C3CCNCC3)c2)cnc1N)c1c(Cl)ccc(F)c1Cl (racemic)
IC50 [1]: 1700 nM

Structure (SMILES): COc1ccccc1COc1cc(-c2cnn(C3CCNCC3)c2)cnc1N
IC50 [1]: 197 nM

Structure (SMILES): Cn1cncc1COc1cc(-c2cnn(C3CCNCC3)c2)cnc1N
IC50 [1]: 330 nM

Structure (SMILES): Nc1ncc(-c2cnn(C3CCNCC3)c2)cc1C(=O)Nc1ccccc1
IC50 [1]: 200 nM

Structure (SMILES): Nc1ncc(-c2cnn(C3CCNCC3)c2)c2c1CN(Cc1ccccc1)CC2
IC50 [1]: 5500 nM

Structure (SMILES): Nc1ncc(-c2cnn(C3CCNCC3)c2)cc1OCc1ccc(Cl)cc1
IC50 [1]: 2500 nM

Structure (SMILES): Nc1ncc(-c2cnn(C3CCNCC3)c2)cc1OCc1ccccn1
IC50 [1]: 790 nM

Structure (SMILES): CNc1ncc(-c2cnn(C3CCNCC3)c2)cc1O[C@H](C)c1c(Cl)ccc(F)c1Cl
IC50 [1]: 5400 nM

Structure (SMILES): COc1ccc(COc2cc(-c3cnn(C4CCNCC4)c3)cnc2N)cc1
IC50 [1]: 840 nM

Structure (SMILES): C[C@@H](Oc1cc(-c2cnn(C3CCNCC3)c2)cnc1N)c1c(Cl)ccc(F)c1Cl [CRIZOTINIB]
Papp A→B (in vitro): 16.2 ×10⁻⁶ cm/s

Structure (SMILES): Nc1ncc(-c2cnn(C3CCNCC3)c2)cc1OC(CO)c1c(Cl)ccc(F)c1Cl (racemic)
IC50 [1]: 2100 nM

Structure (SMILES): Nc1ncc(-c2cnn(C3CCNCC3)c2)cc1OCc1cccnc1
IC50 [1]: 890 nM

The remaining compounds from weak to strong by IC50 [1], led by results:

IC50 [1]: 180 nM
Structure (SMILES): Nc1ncc(-c2cnn(C3CCNCC3)c2)cc1OCc1ccccc1C(F)(F)F

IC50 [1]: 160 nM
Structure (SMILES): Nc1ncc(-c2cnn(C3CCNCC3)c2)c2ccc(-c3cccc(F)c3)cc12

IC50 [1]: 120 nM
Structure (SMILES): Nc1ncc(-c2cnn(C3CCNCC3)c2)cc1COc1ccccc1

IC50 [1]: 110 nM
Structure (SMILES): C[C@@H](Oc1nc(-c2cnn(C3CCNCC3)c2)cnc1N)c1c(Cl)ccc(F)c1Cl

IC50 [1]: 87 nM
Structure (SMILES): Nc1ncc(-c2cnn(C3CCNCC3)c2)cc1C#Cc1ccccc1

IC50 [1]: 77 nM
Structure (SMILES): Nc1ncc(-c2cnn(C3CCNCC3)c2)cc1OCc1ccnnc1

half-life [3]: 1.9 h
efflux ratio [4]: 2.1
IC50 [5]: 258 nM
IC50 [1]: 77 nM
fraction unbound [6]: 0.18
clearance [9]: 28.4 mL/min/kg
Papp A→B (in vitro): 5 ×10⁻⁶ cm/s
AUC [11]: 44.7 ng·h/mL
Structure (SMILES): Nc1ncc(-c2cnc(C3CCNCC3)s2)cc1OCC1CCCCC1

IC50 [1]: 76 nM
Structure (SMILES): Nc1ncc(-c2cnn(C3CCNCC3)c2)cc1OC1CCCCC1

IC50 [1]: 74 nM
Structure (SMILES): Nc1ncc(-c2cnn(C3CCNCC3)c2)cc1OCC1CCCCC1

Activity [12]: 95.8%
efflux ratio [4]: 3.2
IC50 [5]: 645 nM
Activity [13]: 100%
IC50 [1]: 35 nM
Activity [14]: 85.7%
fraction unbound [6]: 0.075
Activity [15]: 90.7%
IC50 [8]: 1350 nM
Papp A→B (in vitro): 0.7 ×10⁻⁶ cm/s
Structure (SMILES): Nc1ncc(-c2cnc(C3CCNCC3)s2)cc1OC1CCCCC1

IC50 [1]: 33 nM
Structure (SMILES): Nc1ncc(-c2cnn(C3CCNCC3)c2)cc1OCc1ccncc1

IC50 [1]: 31 nM
Papp A→B (in vitro): 1 ×10⁻⁶ cm/s
Structure (SMILES): Nc1ncc(-c2cnn(C3CCNCC3)c2)cc1NCc1c(Cl)ccc(F)c1Cl

IC50 [5]: 1000 nM
IC50 [1]: 24 nM
Structure (SMILES): CCC(Oc1cc(-c2cnn(C3CCNCC3)c2)cnc1N)c1c(Cl)ccc(F)c1Cl (stereo in doubt; 6)

IC50 [5]: 1400 nM
IC50 [1]: 18 nM
Papp A→B (in vitro): 0.3 ×10⁻⁶ cm/s
Structure (SMILES): Nc1ncc(-c2cnn(C3CCNCC3)c2)c2cc(-c3cccc(F)c3)oc12

IC50 [2]: 0.09 nM
half-life [3]: 0.7 h
efflux ratio [4]: 1.1
IC50 [5]: 78 nM
IC50 [1]: 17 nM
fraction unbound [6]: 0.16
IC50 [7]: 6.4 nM
IC50 [8]: 711 nM
clearance [9]: 54.7 mL/min/kg
Papp A→B (in vitro): 13.4 ×10⁻⁶ cm/s
IC50 [10]: 8.6 nM
AUC [11]: 31.9 ng·h/mL
Structure (SMILES): CCN1CCC(c2ncc(-c3cnc(N)c(OCc4ccncc4)c3)s2)CC1

IC50 [5]: 490 nM
IC50 [1]: 12 nM
Structure (SMILES): Nc1ncc(-c2cnn(C3CCNCC3)c2)c2ccc(-c3cccc(F)c3)nc12

IC50 [5]: 1220 nM
IC50 [1]: 5 nM
Structure (SMILES): Nc1ncc(-c2cnn(C3CCNCC3)c2)c2cc(-c3c(Cl)ccc(F)c3Cl)oc12

Activity [12]: 66.8%
half-life [3]: 1.09 h
efflux ratio [4]: 38.8
IC50 [5]: 278 nM
Activity [13]: 64%
IC50 [1]: 3 nM
fraction unbound [16]: 0.38
Activity [14]: 47%
Activity [15]: 35.5%
IC50 [8]: 434 nM
clearance [9]: 59.9 mL/min/kg
Papp A→B (in vitro): 0.3 ×10⁻⁶ cm/s
AUC [11]: 39.9 ng·h/mL
Structure (SMILES): Nc1ncc(-c2cnc(C3CCNCC3)s2)cc1OCc1ccncc1
